Earlier results on 3 compounds are cited in US20080253970A1, “Stable Pharmaceutical Drug Products” (Schering Corporation, priority 2007, published 2008).

Structures are written as SMILES.

Regarding `C[C@@H]1C[C@H]2[C@@H]3CCC4=CC(=O)C=C[C@]4(C)[C@@]3(Cl)[C@@H](O)C[C@]2(C)[C@@]1(OC(=O)c1ccco1)C(=O)CCl` [mometasone furoate, 9,21-Dichloro-11(beta), 17-dihydroxy-16(alpha)-methylpregna-1,4-diene-3,20-dione17-(2 Furoate)], the solubility in ethanol result is reported as “partially soluble in ethanol”.
Turning to `CC1(C)O[C@@H]2C[C@H]3[C@@H]4C[C@H](F)C5=CC(=O)C=C[C@]5(C)[C@H]4[C@@H](O)C[C@]3(C)[C@]2(C(=O)CO)O1` [flunisolide], the solubility in ethanol entry was “partially soluble in ethanol”.
For the compound `C[N+]1(C)[C@@H]2C[C@@H](OC(=O)C(O)(c3cccs3)c3cccs3)C[C@H]1[C@@H]1O[C@@H]12` [tiotropium], the solubility in ethanol result is “partially soluble in ethanol”.
